We go through 27 molecules from ChEMBL document CHEMBL1122139, “Importance of the aromatic ring in adrenergic amines. 7. Comparison of the stereoselectivity of norepinephrine N-methyltransferase for aromatic vs. nonaromatic substrates and inhibitors” (J Med Chem, 1982).

Values joined by “and” are separate entries in the source; they are usually repeats but may differ in a detail not shown here. Equal values may be shown once.

The target of data set [1] is T1, Phenylethanolamine N-methyltransferase (Bos taurus, UniProt P10938).
T1 sequence (P10938 whole entry): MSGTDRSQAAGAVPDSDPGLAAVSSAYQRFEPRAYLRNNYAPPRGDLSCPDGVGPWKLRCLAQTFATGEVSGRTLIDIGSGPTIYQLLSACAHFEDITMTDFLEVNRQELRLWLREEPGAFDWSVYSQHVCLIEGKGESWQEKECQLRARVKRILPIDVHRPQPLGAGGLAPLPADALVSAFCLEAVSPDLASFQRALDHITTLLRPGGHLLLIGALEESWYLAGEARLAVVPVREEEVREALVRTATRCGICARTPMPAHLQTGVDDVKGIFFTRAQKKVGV
Put plainly: (§1) Inhibitory activity against Norepinephrine N-methyl-transferase of bovine adrenal glands. The format is tissue-based, Adrenal gland.

The nature of data set [2]: Vmax/Km x100 value of the compound.
Data set [3] can be described thus: Vmax value was calculated in terms of nmoles of product per mg of protein per minute.
Compound in data set [4]: NC[C@@H](O)C1CCCCCCC1
Described as §1. The format is tissue-based. To be noted: Adrenal gland.

Compound in data set [5]: NC[C@@H](O)c1ccccc1
The data set is described as §1. The format is tissue-based. Particulars: Adrenal gland.

Compound in data set [6]: NC[C@H](O)C1CCCCC1
The data set is described as §1. The format is tissue-based. To be noted: Adrenal gland.

Compound in data set [7]: NC[C@@H](O)C1CCCCC1
The data set is described as §1. To be noted: Adrenal gland. The format is tissue-based.

Compound in data set [8]: NC[C@H](O)C1CCCCCCC1
Described as §1. The format is tissue-based. Particulars: Adrenal gland.

Compound in data set [9]: NCC(O)C1CCCCCCC1
The data set is described as §1. The format is tissue-based. To be noted: Adrenal gland.

Compound in data set [10]: NC[C@H](O)c1ccccc1
The data set is described as §1. It is filed as tissue-based. To be noted: Adrenal gland.

As a reminder, the Ki is a measure of affinity in units of concentration, obtained from inhibition or displacement. Higher therefore signals weaker binding. For the molecule `CC(N)c1ccccc1` (configuration not stated), the Ki in [1] came out at 460 µM.
A word on the Vmax: it is the rate approached at saturating substrate. On to `NC[C@H](O)C1CCCCC1`, for which, in data set [2], the Vmax/Km x100 was found to be 2.43. For the same molecule, in data set [3], the Vmax is 1.85 nmol/min/mg.
In the same order, the values of `NCC(O)C1CCCCC1` (configuration not stated) are 2.47 and 0.99 nmol/min/mg.
As for `C[C@H](N)CC1CCCCCCC1`, the Ki in data set [1] stood at 34 µM.
`NC[C@@H](O)c1ccccc1` (stereo in doubt; 9b): the Vmax/Km x100 in data set [2] came to 0.93. For the same molecule, in [3], the Vmax was 0.92 nmol/min/mg.
In the same order, the values of `NC[C@H](O)C1CCCCCCC1` are 0.88 and 0.38 nmol/min/mg.
The molecule `C[C@@H](N)C1CCCCC1` gave a Ki in data set [1] of 412 µM.
The same measure, in the same setting: then `NCCc1ccccc1` [PHENETHYLAMINE], with 467 µM; and `C[C@H](N)Cc1ccccc1` (stereo in doubt; 1c) [DEXTROAMPHETAMINE], with 1380 µM.
On the same count and under the same terms, then `CC(N)Cc1ccccc1` (configuration not stated) [AMPHETAMINE], with 740 µM.
Same read-out and setting: for `C[C@H](N)Cc1ccccc1` (stereo in doubt; 1b) [DEXTROAMPHETAMINE] the value was 422 µM.
Turning to `NC[C@@H](O)C1CCCCC1`, in data set [2], the Vmax/Km x100 stood at 1.88. The Vmax in data set [3] is 0.64 nmol/min/mg.
In data set [1], `C[C@H](N)c1ccccc1` registered an inhibition constant (Ki) of 149 µM.
`NC[C@@H](O)c1ccccc1` (stereo in doubt; 9a): the Vmax/Km x100 in data set [2] turned out to be 1.62. For the same molecule, the Vmax in data set [3] is 1.75 nmol/min/mg.
In the same order, the values of `NC[C@H](O)c1ccccc1` are 1.69 and 4.85 nmol/min/mg.
With `CC(N)CC1CCCCCCC1` (configuration not stated), in data set [1], the inhibition constant (Ki) came to 86 µM.
On the same count and under the same terms, for `C[C@@H](N)c1ccccc1` the value was 1680 µM; for `C[C@H](N)CC1CCCCC1`, 22 µM.
In the case of `NC[C@@H](O)C1CCCCCCC1`, the Vmax/Km x100 in data set [2] is 0.67. Further, the Vmax in data set [3] is 0.27 nmol/min/mg.
In the case of `C[C@@H](N)CC1CCCCCCC1`, the Ki in data set [1] is 157 µM.
Same read-out and setting: for `NCCC1CCCCC1` the value was 41 µM.
On the same count and under the same terms, for `C[C@@H](N)CC1CCCCC1` the value was 290 µM; for `C[C@H](N)C1CCCCC1`, 44 µM.
Still for that read-out and setting: for `CC(N)CC1CC=CCC1` (configuration not stated) the value was 110 µM.
As to `NCC(O)C1CCCCCCC1` (configuration not stated), in data set [2], the Vmax/Km x100 was determined as 0.62. Besides, in data set [3], the Vmax was 0.27 nmol/min/mg.
Regarding `CC(N)CC1CCCCC1` (configuration not stated), the Ki in data set [1] was 109 µM.

B1: Phenylethanolamine N-methyltransferase (Bos taurus), P10938 (protein)
chain: MSGTDRSQAAGAVPDSDPGLAAVSSAYQRFEPRAYLRNNYAPPRGDLSCPDGVGPWKLRCLAQTFATGEVSGRTLIDIGSGPTIYQLLSACAHFEDITMTDFLEVNRQELRLWLREEPGAFDWSVYSQHVCLIEGKGESWQEKECQLRARVKRILPIDVHRPQPLGAGGLAPLPADALVSAFCLEAVSPDLASFQRALDHITTLLRPGGHLLLIGALEESWYLAGEARLAVVPVREEEVREALVRTATRCGICARTPMPAHLQTGVDDVKGIFFTRAQKKVGV
For orientation: Km means the substrate concentration at which the rate is half of its maximum. On to B1, for which the Km in [4] was 40 µM; in data set [5], 96 µM and 108 µM; in data set [6] it was 76 µM; in data set [7], 34 µM; in data set [8], 43 µM; in data set [9], 43 µM. Besides, in data set [10], the Km was determined as 286 µM.
